“And” between values parts separate entries of the source, which are not always exact repeats. Equal values may be shown once. Read-outs that look alike come from different tables or passages of the source.
Key:
[1] = tested on: growing broilers; conditions: DMG supplementation; cited from earlier work
[2] = tested on: weaned piglets (pigs of Rattlerow Seghers origin); format: in vivo; set-up: dG / End BW: unit not given here
From the text: The setup of the experiments described below is to assess the influence of DMG on the performance in model species for pigs: mortality, feed conversion ratio (FCR), daily growth (dG), body weight (BW).
To examine all the effects associated with the supplementation of dimethylglycine (DMG) in pig feed, a test was setup with pigs of Rattlerow Seghers origin as model species. In this feeding trial 60 weaned piglets of even sex distribution were kept for 42 days. Teeth of piglets were clipped and male piglets were neutered during the first week after birth. At the beginning of the test the piglets were ad random divided per sex in 20 pens with 3 piglets per pen, reckoning even weight distribution at pen level. The piglets were fed with one type of feed from the first day on till the end of the test period. The type of feed was attributed on a random basis to the different housings. The control feed was based on a commercial piglet feed enriched with 5% corn oil to increase the oxidative stress in the feed. The feed had the following composition: 91% dry matter, 5% ash, 18% crude protein, 8% crude fat, 4% crude fibre and 56% other carbohydrate. It has a (calculated) metabolizable energy value of about 13.9 MJ/kg.
In the second type of feed 500mg of DMG was added per kilogram to the same composition of feed as described for the control feed. Over the entire test period, the pigs consumed on average about 290 mg DMG per piglet per day. The housing of the piglets consisted out of slatted floor pig pens of 1.05 m×1.7 m with a total surface of 1.785 m^2. Feed and water were ad libitum available at all times.
Each piglet was weighted after overnight fasts at 4 times, namely at days 0, 14, 29 and 42. The daily growth for the total growth period (dG) as well as daily growth during the three periods (between the start and the fourteenth day (dGI), between the fourteenth and the twenty-ninth day (dGII) and between the twenty-ninth day and the forty-second day (dGIII)) was calculated for each animal. The feed intake for each pen was also measured during these periods. The feed conversion ratio was calculated for each of the pens for both the growth period excluding the first two weeks (FRCII+III) and for the total growth period (FRC). This feed conversion ratio was calculated by dividing the total feed consumption by the weight gain of the piglets during the entire experiment.

[3] = tested on: male grower-finisher pigs exposed to mycoplasmal infections; conditions: cited from earlier work
[4] = tested on: broilers; conditions: diet supplemented with pangamic acid; cited from earlier work

## CN(C)CC(=O)O [DMG, N,N-dimethylglycine]
[1]
  body weight gain: not an important impact
  feed conversion rate: decreased
[2]; Barrow, DMG 500 ppm, mean ± SD
  End BW: 23.4 ± 0.86
  dG: 356 ± 20
[2]; Barrow, excluding the first two weeks, DMG 500 ppm, mean ± SD
  FCRII + III: 1.71 ± 0.12
[2]; Barrow, excluding the first two weeks, vs control
  FCRII + III, DMG-effect: −6.2%
[2]; Barrow, total growth period, DMG 500 ppm, mean ± SD
  FCR: 1.80 ± 0.09
[2]; Barrow, total growth period, vs control
  FCR, DMG-effect: −8.4%
[2]; Gilt, DMG 500 ppm, mean ± SD
  End BW: 19.3 ± 1.64
  dG: 271 ± 39
[2]; Gilt, excluding the first two weeks, DMG 500 ppm, mean ± SD
  FCRII + III: 1.74 ± 0.09
[2]; Gilt, excluding the first two weeks, vs control
  FCRII + III, DMG-effect: −8.9%
[2]; Gilt, total growth period, DMG 500 ppm, mean ± SD
  FCR: 1.93 ± 0.16
[2]; Gilt, total growth period, vs control
  FCR, DMG-effect: −3.6%
[2]; Gilt, vs control
  End BW, DMG-effect: −7.0%
  dG, DMG-effect: −11.0%
[2]; barrows and gilts, daily growth day 0-14, DMG 500 mg/kg feed, mean ± SD
  dGI: 94 ± 58 g/day
[2]; barrows and gilts, daily growth day 14-29, DMG 500 mg/kg feed, mean ± SD
  dGII: 365 ± 65 g/day
[2]; barrows and gilts, daily growth day 29-42, DMG 500 mg/kg feed, mean ± SD
  dGIII: 491 ± 118 g/day
[2]; barrows and gilts, day 0-14, vs control
  dGI, DMG-effect: −7.0%
[2]; barrows and gilts, day 14-29, vs control
  dGII, DMG-effect: +8.1%
[2]; barrows and gilts, day 29-42, vs control
  dGIII, DMG-effect: +2.1%
[2]; barrows and gilts, day 42, DMG 500 mg/kg feed, mean ± SD
  End body weight: 21.4 ± 2.46 kg
[2]; barrows and gilts, excluding the first two weeks, vs control
  FCRII + III, DMG-effect: −7.6%
[2]; barrows and gilts, growth period excluding the first two weeks, DMG 500 mg/kg feed, mean ± SD
  FCRII + III: 1.72 ± 0.10
[2]; barrows and gilts, growth period excluding the first two weeks, vs control, given unsigned
  improvement in feed conversion ratio (lower FCR): 7.6%
[2]; barrows and gilts, total growth period, DMG 500 mg/kg feed, mean ± SD
  FCR (feed conversion ratio): 1.87 and 1.87 ± 0.14
[2]; barrows and gilts, total growth period, vs control
  FCR, DMG-effect: −5.9%
[2]; barrows and gilts, total growth period, vs control, given unsigned
  improvement in feed conversion ratio (lower FCR): 5.9%
[2]; barrows and gilts, total period day 0-42, DMG 500 mg/kg feed, mean ± SD
  Daily growth (dG): 314 ± 53 g/day
[2]; barrows, total growth period, vs control, given unsigned
  improvement in feed conversion ratio (lower FCR): 8.4%
[2]; gilts, growth period excluding the first two weeks, vs control, given unsigned
  improvement in feed conversion ratio (FCRII+III, lower): 8.9%
[2]; gilts, total growth period, vs control, only numerically, given unsigned
  improvement in feed efficiency (lower FCR): 3.6%
[2]; pig, in vivo
  health of the animals during the experiment (clinical signs of disease): remained healthy

## C[N+](C)(C)CC(=O)O [betaine]
[3]; 0.125% betaine in feed
  lung area damaged by mycoplasmal infection: significant reduction
[3]; growing pigs exposed to mycoplasmal infections
  growth rate and other performance characteristics, such as the feed conversion ratio: improvements

## CN(C)CC(=O)OC[C@@H](O)[C@@H](O)[C@H](O)[C@@H](O)C(=O)O [pangamic acid, 6-O-(dimethylaminoacetyl)-D-gluconic acid]
[4]
  body weight gain: reduction
  feed conversion rate: not affected
